Cytotoxicity data for 40 compounds are collected here from ChEMBL document CHEMBL3507680, “University of Dundee, Gates Library screen for HepG2 cell viability”.

The nature of the series: Human HepG2 cell viability assay in 384 well format. Type of series: toxicity, cell-based. Further details: dose 125 nL, time 70.5 hour; concentration not given beside the values. As to conditions: HepG2 cells, read-out: Inhibition.
As to `CC(C)N1CCC2(CC1)C(=O)N(c1cccnc1)c1ccc(F)cc12`, the cytotoxicity at 70.5 h was -0.653%.
As to `Cc1cc(N(C)Cc2ncc[nH]2)nc(-c2ccccc2)n1`, the cytotoxicity at 70.5 h was -6.89%.
The value for `COCCCN1CCC(c2nc3c([nH]2)CC(C)(C)CNC3=O)C1` (stereo not given) was -5.24%; that for `Cc1ccnn1CC(=O)Nc1cc(-c2ccncc2)[nH]n1` was -6.24%.
As to `Cc1ccc(NC2(C(=O)NC(C)c3ncn[nH]3)CCCC2)cc1` (stereo not given), the cytotoxicity at 70.5 h was found to be 6.6%.
The value for `CN(C)CCO[C@H]1CN(C(=O)c2ccc[nH]2)[C@@H]2COC[C@H]12` was -11.1%; that for `OC(CN(Cc1ccccc1)Cc1cccnc1)c1ccco1` (stereo not given) was 14.4%.
The same measure for `CN(C)C(C(=O)N1CCN(S(N)(=O)=O)CC1)c1ccccc1F` (stereo not given): -3.36%; for `c1cncc(COCc2n[nH]c3c2CN(Cc2ccco2)C3)c1`: -1.5%; for `CSC(C)(C)CNC(=O)NCc1cccc(-n2ccnc2)c1`: -12.4%.
The same measure for `Cc1nc(CN2CCC(CNC(=O)C3(C)CCCC3)CC2)oc1C`: -4.66%.
With `Cc1cc(NC(=O)N2CCCC(O)C2)nn1-c1ccccc1Cl` (stereo not given), the cytotoxicity at 70.5 h was -5.66%.
The value for `O=C(CCC1CCCC1)NCc1nnc2ccccn12` was -10.1%.
Turning to `CS(=O)(=O)N1CCC2(CC1)CN(CC1CC1)CC21CCNC1=O` (stereo not given), the cytotoxicity at 70.5 h was -9.45%.
The same measure for `Cc1ccc(OCCN(C)C2CCOC2=O)cc1` (stereo not given): -5.65%.
The value for `Cc1cc(CN2C[C@H]3CC[C@@H]2CN(C2Cc4ccccc4C2)C3)on1` was 3.93%.
The value for `CCOCC(=O)NCc1cc(Br)ccc1OC(F)F` was 0.394%; that for `Cc1noc(C)c1CN(C)c1ncnc2onc(C)c12` was 9.42%; that for `Cc1cccc(-c2nccn2-c2cccc(CC(=O)O)c2)n1` was -9.85%.
Regarding `CCCS(=O)(=O)N1CCN(CCOC)c2nc(C)ccc2C1`, the cytotoxicity at 70.5 h was -8.9%.
Regarding `O=C(NCCNCC1CNc2ccnn2C1)c1ccc(F)cc1` (stereo not given), the cytotoxicity at 70.5 h is -6.67%.
The value for `CCN(CC1CCOCC1)C(=O)CCNC(=O)c1ccccc1F` was -23.5%; that for `N#Cc1cc(NC(=O)c2cscn2)ccc1N1CCC(O)CC1` was -4.48%.
The same measure for `O=C(NCCOC1CCCC1)c1ccc(-c2ccco2)[nH]c1=O`: -2.19%; for `COCCNC(=O)[C@H]1CC[C@@H]2[C@@H](CCN2c2ncc(F)cn2)O1`: -1.33%.
Regarding `CCc1nccn1-c1cccc(C2CCCN2)n1` (stereo not given), the cytotoxicity at 70.5 h was -1.73%.
The same measure for `COCCCN(Cc1ccncc1)C(=O)C1COc2ccccc2C1` (stereo not given): -14.9%.
The same measure for `Cc1cc(Br)c(O)c(-c2nc(N3CCOCC3)sc2C)c1`: 5.07%.
Turning to `CCc1nnsc1C(=O)NCCCC(CC)(CC)C1OCCO1`, the cytotoxicity at 70.5 h is -15.8%.
The value for `Cc1nc(CN2CCn3cc(CNC(=O)C4CCC4)nc3C2)cs1` was 14%; that for `COCCC(=O)N1CCC(Nc2ncc(Br)cn2)CC1` was -0.761%; that for `N#CCSCCCN1CCC(C(=O)N2CCCCCC2)CC1` was -5.04%.
The same measure for `Cc1cc(C)n(CCN2CCC(N(C)Cc3nnc(C)n3C)C2)n1` (stereo not given): -0.44%.
On to `CC(=O)Nc1ccc(Oc2cc(C)nc(C3CCNCC3)c2)cc1`, for which the cytotoxicity at 70.5 h is -15.5%.
The same measure for `Cc1cc(NCc2cccc(C#N)c2)ccc1C(N)=O`: 2.79%; for `CN(C)CCN1C(=O)CCC12CCCN(C(=O)CC1CC1)CC2` (stereo not given): 20.2%; for `CN(C)C(=O)N1CCN(C(=O)c2cccc(Cl)c2)CC2(CNC(=O)C2)C1` (stereo not given): -4.76%.
For the compound `O=C1CC(NS(=O)(=O)c2ccc(Cl)cc2)CN1` (stereo not given), the cytotoxicity at 70.5 h turned out to be 0.308%.
The same measure for `COc1cc(NC(=O)c2nc3ccccc3n(C)c2=O)cc(OC)c1`: -14.2%; for `Cn1cc(CN2CCOC(c3cccc(-c4cncnc4)n3)C2)cn1` (stereo not given): -5.7%.
